Where a name gives a salt, the structure may show the parent alone.

The record followed here is patent publication US20240083861A1, “HSD17B13 INHIBITORS AND USES THEREOF” (FL2022-001, Inc., priority 2020, published 2024).

The first experiment addresses T1, Recombinant human HSD17B13 enzyme (Homo sapiens, UniProt Q7Z5P4).
T1 sequence (Q7Z5P4 20-300): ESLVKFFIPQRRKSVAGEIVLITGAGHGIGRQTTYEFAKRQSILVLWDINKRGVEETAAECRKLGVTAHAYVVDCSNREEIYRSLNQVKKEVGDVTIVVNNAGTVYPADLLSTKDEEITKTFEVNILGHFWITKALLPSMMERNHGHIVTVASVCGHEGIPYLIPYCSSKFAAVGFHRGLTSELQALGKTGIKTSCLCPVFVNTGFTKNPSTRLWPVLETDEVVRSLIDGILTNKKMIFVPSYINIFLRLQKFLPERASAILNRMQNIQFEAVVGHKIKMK
Put plainly: HSD17b13 NAD(P)H-Glo biochemical assay. The settings on record: 50 uM estradiol, 1 mM NAD+, NAD(P)H-Glo luminescence; read-out: HSD17β13 IC50. In short, it runs like this: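 Luminescent NAD(P)H-Glo read-out, taken after 1 hour at RT, measured cofactor reduction. Substrate and cofactor were estradiol at 50 uM and NAD+ at 1 mM final, reacted with the recombinant human enzyme for 3 hours at 37° C in 20 mM Tris pH7.4, 0.002% Tween-20, 0.02% BSA. Compound was pre-incubated with enzyme for 20 minutes at RT.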
Turning to `CN(c1ncc2c(-c3cc(C(F)(F)F)c(F)c(O)c3F)nn(C)c2n1)C1CCNCC1` [Compound 19, 2,6-Difluoro-3-(1-methyl-6-(methyl(piperidin-4-yl)amino)-1H-pyrazolo[3,4-d]pyrimidin-3-y1)-5-(trifluoromethyl)phenol], the IC50 was 100 to 1000 nM.

Consider `CC(=O)N1CCC(N(C)c2ncc3c(-c4cc(C(F)(F)F)c(F)c(O)c4F)nn(C)c3n2)CC1` [Compound 19.01, 1-(4-((3-(2,4-Difluoro-3-hydroxy-5-(trifluoromethyl)phenyl)-1-methyl-1H-pyrazolo[3,4-d]pyrimidin-6-y1)(methyl)amino)piperidin-1-yl)ethan-1-one], for which the IC50 was less than 100 nM.

As to `Cn1nc(-c2cc(C(F)(F)F)c(F)c(O)c2F)c2cnc(N(Cc3ccccc3)C3CCOCC3)nc21` [Compound 19.02, 3-(6-(Benzyl(tetrahydro-2H-pyran-4-yl)amino)-1-methyl-1H-pyrazolo[3,4-d]pyrimidin-3-y1)-2,6-difluoro-5-(trifluoromethyl)phenol], the concentration for half-maximal inhibition (IC50) is less than 100 nM.

With `Cn1nc(-c2cc(C(F)(F)F)c(F)c(O)c2F)c2cnc(N3CCNC4(CCC4)C3)nc21` [Compound 20, 2,6-Difluoro-3-(1-methyl-6-(5,8-diazaspiro[3.5]nonan-8-yl)-1H-pyrazolo[3,4-d]pyrimidin-3-y1)-5-(trifluoromethyl)phenol HCl salt], the concentration for half-maximal inhibition (IC50) is less than 100 nM.

In the case of `CNC(=O)N1CCN(c2ncc3c(-c4cc(C(F)(F)F)c(F)c(O)c4F)nn(C)c3n2)CC12CCC2` [Compound 20.01, 8-(3-(2,4-Difluoro-3-hydroxy-5-(trifluoromethyl)phenyl)-1-methyl-1H-pyrazolo[3,4-d]pyrimidin-6-yl)-N-methyl-5,8-diazaspiro[3.5]nonane-5-carboxamide], the IC50 was less than 100 nM.

For the molecule `CN(C)C(=O)N1CCN(c2ncc3c(-c4cc(C(F)(F)F)c(F)c(O)c4F)nn(C)c3n2)CC12CCC2` [Compound 20.02, 8-(3-(2,4-Difluoro-3-hydroxy-5-(trifluoromethyl)phenyl)-1-methyl-1H-pyrazolo[3,4-d]pyrimidin-6-yl)-N,N-dimethy1-5,8-diazaspiro[3.5]nonane-5-carboxamide], the IC50 is less than 100 nM.

In the case of `COC(=O)N1CCN(c2ncc3c(-c4cc(C(F)(F)F)c(F)c(O)c4F)nn(C)c3n2)CC12CCC2` [Compound 20.03, Methyl 8-(3-(2,4-difluoro-3-hydroxy-5-(trifluoromethyl)phenyl)-1-methyl-1H-pyrazolo[3,4-d]pyrimidin-6-yl)-5,8-diazaspiro[3.5]nonane-5-carboxylate], the IC50 is less than 100 nM.

As for `C[C@@H]1CN(C(=O)Nc2ccccc2)CCN1c1cc2c(cn1)c(-c1cc(C(F)(F)F)c(F)c(O)c1F)nn2C` [Compound 21, (R)-4-(3-(2,4-Difluoro-3-hydroxy-5-(trifluoromethyl)phenyl)-1-methyl-1H-pyrazolo[4,3-c]pyridin-6-yl)-3-methyl-N-phenylpiperazine-1-carboxamide], the IC50 is less than 100 nM.

Regarding `Cn1nc(-c2cc(C(F)(F)F)c(F)c(O)c2F)c2cnc(N3CCN(C(=O)Nc4ccccc4)CC3)cc21` [Compound 21.01, 4-(3-(2,4-Difluoro-3-hydroxy-5-(trifluoromethyl)phenyl)-1-methyl-1H-pyrazolo[4,3-c]pyridin-6-y1)-N-phenylpiperazine-1-carboxamide], the IC50 was less than 100 nM.

For the molecule `C[C@H]1CN(C(=O)Nc2ccccc2)CCN1c1cc2c(cn1)c(-c1cc(C(F)(F)F)c(F)c(O)c1F)nn2C` [Compound 21.02, (S)-4-(3-(2,4-Difluoro-3-hydroxy-5-(trifluoromethyl)phenyl)-1-methyl-1H-pyrazolo[4,3-c]pyridin-6-y1)-3-methyl-N-phenylpiperazine-1-carboxamide], the 50% inhibitory concentration (IC50) is less than 100 nM.

For `Cn1nc(-c2cc(C(F)(F)F)c(F)c(O)c2F)c2cnc(N3CCN(C(=O)Nc4ccccc4)CC3(C)C)cc21` [Compound 21.03, 4-(3-(2,4-Difluoro-3-hydroxy-5-(trifluoromethyl)phenyl)-1-methyl-1H-pyrazolo[4,3-c]pyridin-6-y1)-3,3-dimethyl-N-phenylpiperazine-1-carboxamide], the IC50 was less than 100 nM.

With `Cn1nc(-c2cc(C(F)(F)F)c(F)c(O)c2F)c2cnc(N3CCN(C(=O)Nc4ccccc4)CC34CC4)cc21` [Compound 21.04, 4-(3-(2,4-Difluoro-3-hydroxy-5-(trifluoromethyl)phenyl)-1-methyl-1H-pyrazolo[4,3-c]pyridin-6-y1)-N-phenyl-4,7-diazaspiro[2.5]octane-7-carboxamide], the 50% inhibitory concentration (IC50) was less than 100 nM.

In the case of `Cn1nc(-c2cc(C(F)(F)F)c(F)c(O)c2F)c2cnc(N3CCN(C(=O)Nc4ccccc4)CC34CCC4)cc21` [Compound 21.05, 5-(3-(2,4-Difluoro-3-hydroxy-5-(trifluoromethyl)phenyl)-1-methyl-1H-pyrazolo[4,3-c]pyridin-6-y1)-N-phenyl-5,8-diazaspiro[3.5]nonane-8-carboxamide], the half-maximal inhibitory concentration (IC50) was less than 100 nM.

`C[C@H]1CN(c2cc3c(cn2)c(-c2cc(C(F)(F)F)c(F)c(O)c2F)nn3C)CCN1C(=O)Nc1ccccc1` [Compound 21.06, (S)-4-(3-(2,4-Difluoro-3-hydroxy-5-(trifluoromethyl)phenyl)-1-methyl-1H-pyrazolo[4,3-c]pyridin-6-y1)-2-methyl-N-phenylpiperazine-1-carboxamide]: the IC50 was less than 100 nM.

In the case of `C[C@@H]1CN(c2cc3c(cn2)c(-c2cc(C(F)(F)F)c(F)c(O)c2F)nn3C)CCN1C(=O)Nc1ccccc1` [Compound 21.07, (R)-4-(3-(2,4-Difluoro-3-hydroxy-5-(trifluoromethyl)phenyl)-1-methyl-1H-pyrazolo[4,3-c]pyridin-6-y1)-2-methyl-N-phenylpiperazine-1-carboxamide], the concentration for half-maximal inhibition (IC50) is less than 100 nM.

On to `Cn1nc(-c2cc(C(F)(F)F)c(F)c(O)c2F)c2cnc(N3CCN(C(=O)Nc4ccccc4)C4(CC4)C3)cc21` [Compound 21.08, 7-(3-(2,4-Difluoro-3-hydroxy-5-(trifluoromethyl)phenyl)-1-methyl-1H-pyrazolo[4,3-c]pyridin-6-y1)-N-phenyl-4,7-diazaspiro[2.5]octane-4-carboxamide], for which the IC50 was less than 100 nM.

Regarding `CN(c1cc2c(cn1)c(-c1nc(C(F)(F)F)c(F)c(O)c1F)nn2C)C1CCOCC1` [Compound 22, 3,5-Difluoro-2-(1-methyl-6-(methyl(tetrahydro-2H-pyran-4-yl)amino)-1H-pyrazolo[4,3-c]pyridin-3-yl)-6-(trifluoromethyl)pyridin-4-ol], the 50% inhibitory concentration (IC50) was in the range of 100 to 1000 nM.

The same experiment, now with this note: at 30 uM compound; read-out: HSD17β13 % inhibition at 30 uM.
Turning to `O=C(NC1CCC1)c1ccc2oc(-c3cc(O)cc(C(F)(F)F)c3F)nc2c1` [Compound 23, N-Cyclobuty1-2-(2-fluoro-5-hydroxy-3-(trifluoromethyl)phenyl)benzo[d] oxazole-5-carboxamide], the inhibition at 30 µM was determined as 20%.

Consider `O=C(NC12CC(C1)C2)c1ccc2oc(-c3c(F)cc(F)c(O)c3F)nc2c1` [Compound 23.01, N-(Bicyclo[1.1.1]pentan-1-y1)-2-(2,4,6-trifluoro-3-hydroxyphenyl)benzo[d]oxazole-5-carboxamide], for which the inhibition at 30 µM is less than 20%.

By IC50 is commonly meant the concentration that inhibits the measured activity by half. For orientation: inhibition means the drop in the measured response relative to a control, in per cent.
